Values quoted from earlier work as cited in article PMC10675597, “Design, Synthesis, and Antisickling Investigation of a Thiazolidine Prodrug of TD-7 That Prolongs the Duration of Action of Antisickling Aromatic Aldehyde” (Pharmaceutics, 2023).

Legend:
[1] = set-up: method as in PMID 34657559, PMID 9490025, PMID 10376886, PMID 11154732; details: cited from earlier work
[2] = set-up: method as in PMID 15180869; details: cited from earlier work

SMILES	oral bioavailability (in words) [1]	oral bioavailability compared to vanillin (in words) [2]	Cmax ([2]; oral, Sprague-Dawley rats)	Cmax, fold greater than vanillin ([2]; oral, Sprague-Dawley rats)	relative bioavailability, fold higher than vanillin ([2]; oral, Sprague-Dawley rats)
O=Cc1ccc(CO)o1 [5-HMF, 5-hydroxymethylfurfural]	low oral bioavailability				
CCOC(=O)[C@H]1CSC(c2ccc(O)c(OC)c2)N1 (some centres unmarked) [MX-1520]		much better oral bioavailability	9000 ng/mL	4 fold	30 fold
CC(C)n1nccc1-c1ncccc1COc1cccc(O)c1C=O [Voxelotor]	satisfactory oral bioavailability				
COc1cc(C=O)ccc1O [vanillin]	low oral bioavailability		2000 ng/mL		
